This note sets out measurements from patent publication US12595253B2, “Benzamides of pyrazolylamino-pyrimidinyl derivatives, and compositions and methods thereof” (LYNK PHARMACEUTICALS CO. LTD., priority 2019, dated 2026).

The target in one data set is T1, JAK1 (Homo sapiens, UniProt P23458).
T1 construct: purchased Carna Biosciences
Nature of the data set: JAK1 microfluidic kinase assay (Caliper EZ Reader II, FAM labeled peptide substrate). It is filed as biochemical. The essentials: (§1)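 Microfluidic mobility-shift kinase assay in 50 mM HEPES, 0.01% Brij35, 10 mM MgCl2, 2 mM DTT. IC50 values come from percent-inhibition curves normalised to uninhibited and enzyme-free controls.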

The next data set concerns the target T2, JAK2 (Homo sapiens, UniProt O60674).
T2 construct: purchased Carna Biosciences
Nature of the data set: JAK2 microfluidic kinase assay (Caliper EZ Reader II, FAM labeled peptide substrate). It is filed as biochemical. In outline:
as §1

The next data set deals with T3, JAK2V617F (Homo sapiens, UniProt O60674, V617F).
T3 construct: purchased Carna Biosciences
T3 sequence (O60674 whole entry V617F): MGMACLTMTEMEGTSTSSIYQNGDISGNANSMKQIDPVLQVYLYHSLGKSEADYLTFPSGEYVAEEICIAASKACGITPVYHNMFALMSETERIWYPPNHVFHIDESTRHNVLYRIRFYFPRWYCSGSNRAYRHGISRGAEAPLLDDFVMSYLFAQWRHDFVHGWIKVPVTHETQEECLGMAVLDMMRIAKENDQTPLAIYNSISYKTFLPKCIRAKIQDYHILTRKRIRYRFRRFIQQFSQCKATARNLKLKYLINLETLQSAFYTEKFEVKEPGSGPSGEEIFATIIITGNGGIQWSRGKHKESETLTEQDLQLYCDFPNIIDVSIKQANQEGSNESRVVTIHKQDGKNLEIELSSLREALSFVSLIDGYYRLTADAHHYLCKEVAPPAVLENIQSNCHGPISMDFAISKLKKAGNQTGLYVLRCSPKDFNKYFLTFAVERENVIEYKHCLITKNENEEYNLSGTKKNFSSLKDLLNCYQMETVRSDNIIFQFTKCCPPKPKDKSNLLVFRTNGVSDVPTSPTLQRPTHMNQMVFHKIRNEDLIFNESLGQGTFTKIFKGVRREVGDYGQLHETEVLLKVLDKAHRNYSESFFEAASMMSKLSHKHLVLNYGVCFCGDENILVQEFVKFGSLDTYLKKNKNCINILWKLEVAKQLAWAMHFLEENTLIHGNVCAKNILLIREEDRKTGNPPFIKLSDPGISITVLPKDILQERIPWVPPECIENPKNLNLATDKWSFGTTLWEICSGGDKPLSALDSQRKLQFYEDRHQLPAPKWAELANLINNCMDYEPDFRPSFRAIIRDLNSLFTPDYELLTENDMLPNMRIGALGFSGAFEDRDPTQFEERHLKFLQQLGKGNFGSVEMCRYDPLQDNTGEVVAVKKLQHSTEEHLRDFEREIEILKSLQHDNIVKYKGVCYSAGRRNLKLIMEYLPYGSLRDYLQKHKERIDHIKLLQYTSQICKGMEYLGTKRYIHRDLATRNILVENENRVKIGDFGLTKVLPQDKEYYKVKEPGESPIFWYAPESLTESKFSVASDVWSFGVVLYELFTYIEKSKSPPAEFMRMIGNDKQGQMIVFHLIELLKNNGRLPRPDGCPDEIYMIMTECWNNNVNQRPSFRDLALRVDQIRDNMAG
Nature of the data set: JAK2V617F microfluidic kinase assay (Caliper EZ Reader II, FAM labeled peptide substrate). As to conditions: JAK2V617F 2.5 nM, 1 mM ATP. It is filed as biochemical. In outline: as §1

A short description of data set [1]: Liver microsomes study, Phase I stability (HLM). Type of data set: in vitro ADME, human. The note with it: pH 7.4. The protocol:
(§2) Commercially available liver microsomes (MsLM vendor: XENOTECH; RLM, DLM, MkL, HLM vendor: Corning) were used for study the Phase I stability of test articles. […] The reaction was initiated by addition of 80 μL of the NADPH regenerating system to 320 µL of each incubation mixture per time point. […] The 0-minute samples were prepared by addition of an 80 μL aliquot of each incubation mixture to 400 μL quench reagent to precipitate proteins. And then a 20 μL aliquot of the NADPH regenerating system was added. At 10, 30, and 90 minutes, the reaction will be stopped by the addition of cold acetonitrile solution containing tolbutamide and propanolol served as internal standard. The samples taken at all time points were centrifuged at 4000×g for 15 minutes. 80 μL of supernatant are taken into 96-well assay plates pre-added with 160 μL ultrapure water, and then analyzed by LC/MS/MS(Shimadzu LC30AD & API4000/API5000)). Concentrations of test articles, control compounds in the samples were determined by using LC/MS/MS) method. Plotting of the chromatograms and peak area integrations are carried out by Analyst (AB Sciex).
(§3) In the determination of the in vitro elimination constant, ke, of the control compounds, the analyte/internal standard peak area ratios will be converted to percentage remaining (% Remaining) with the following equation: […]
(§4) The slope was measured by the natural logarithm of the percentage of the residual compound and time, T½ and CLint were calculated according to the following formulas, V/M was equal to the 1/concentration of protein.
Background: Liver microsomes are vesicles of endoplasmic reticulum, rich in cytochrome P450 enzymes.

A short description of data set [2]: Liver microsomes study, Phase I stability (RLM). It is filed as in vitro ADME, rat. The note with it: pH 7.4. As to the method: as §2, §3, §4
For another data set, the target named is T4, TYK2 (Homo sapiens, UniProt P29597).
T4 construct: purchased Carna Biosciences
T4 sequence (P29597 whole entry): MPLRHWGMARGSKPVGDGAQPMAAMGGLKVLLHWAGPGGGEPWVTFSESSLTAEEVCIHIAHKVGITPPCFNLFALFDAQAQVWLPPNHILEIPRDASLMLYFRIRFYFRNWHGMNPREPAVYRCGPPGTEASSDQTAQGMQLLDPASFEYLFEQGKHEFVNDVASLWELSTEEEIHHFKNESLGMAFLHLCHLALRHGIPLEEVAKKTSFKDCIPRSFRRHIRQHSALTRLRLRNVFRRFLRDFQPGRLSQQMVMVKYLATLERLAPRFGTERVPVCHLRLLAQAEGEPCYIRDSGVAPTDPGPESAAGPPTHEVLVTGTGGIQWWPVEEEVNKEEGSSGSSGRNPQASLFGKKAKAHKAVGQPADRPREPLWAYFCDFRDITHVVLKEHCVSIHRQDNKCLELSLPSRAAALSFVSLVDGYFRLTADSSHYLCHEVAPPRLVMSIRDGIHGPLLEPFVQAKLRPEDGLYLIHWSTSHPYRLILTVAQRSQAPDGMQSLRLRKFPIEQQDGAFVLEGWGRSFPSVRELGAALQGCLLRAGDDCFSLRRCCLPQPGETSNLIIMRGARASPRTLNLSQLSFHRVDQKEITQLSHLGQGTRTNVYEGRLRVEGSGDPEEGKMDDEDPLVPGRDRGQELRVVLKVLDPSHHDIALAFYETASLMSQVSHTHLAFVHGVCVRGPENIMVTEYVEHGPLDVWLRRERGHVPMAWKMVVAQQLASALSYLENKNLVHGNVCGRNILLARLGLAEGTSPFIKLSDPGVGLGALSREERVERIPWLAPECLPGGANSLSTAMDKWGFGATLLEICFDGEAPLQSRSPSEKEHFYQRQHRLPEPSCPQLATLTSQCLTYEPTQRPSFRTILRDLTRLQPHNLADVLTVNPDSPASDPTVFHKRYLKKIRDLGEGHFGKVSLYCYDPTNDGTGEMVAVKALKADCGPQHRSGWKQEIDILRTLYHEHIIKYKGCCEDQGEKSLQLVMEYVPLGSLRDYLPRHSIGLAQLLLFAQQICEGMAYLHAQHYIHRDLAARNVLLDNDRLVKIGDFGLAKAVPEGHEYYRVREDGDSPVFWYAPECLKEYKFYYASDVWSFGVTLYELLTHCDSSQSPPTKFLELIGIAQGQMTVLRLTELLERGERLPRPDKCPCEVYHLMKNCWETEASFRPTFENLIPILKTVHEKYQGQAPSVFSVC
The experiment in a line: TYK2 microfluidic kinase assay (Caliper EZ Reader II, FAM labeled peptide substrate). It is filed as biochemical. As to the method:
Compounds were tested against JAK1, JAK2, JAK2V617F and TYK2. Assay Formats: JAK activity was determined in the reaction buffer 50 mM HEPES, 0.01% Brij35, 10 mM MgCl2, 2 mM DTT by a microfluidic assay. The phosphorylation of a FAM labeled peptide substrate was monitored in the Caliper EZ Reader II (Perkin Elmer). The assay condition for each batch of enzyme (Carna Biosciences) was optimized to obtain 10% conversion rate of peptide substrate. The test compounds were dissolved in DMSO to a stock concentration of 10 mM. 3-fold serially diluted compounds with top concentration of 5 μM were pre-incubated with JAK1, JAK2, JAK2V617F or TYK2 at indicated concentrations for 10 min at ambient temperature. The final DMSO concentration of assay mixture was 1%. […] The reaction was stopped by adding 50 mM EDTA. The reaction time for JAK1, JAK2, JAK2V617F and TYK2 was 120 min, 20 min, 30 min and 10 min, respectively. […] And the well without compound but with equivalent DMSO was defined as no inhibition. The percent inhibition was calculated by the following formula. % Inhibition=(Conversionmax−Conversionsample)/(Conversionmax−Conversionmin)*100 • Conversionmax means the conversion rate in the positive well without addition of compound • Conversionmin means the conversion rate in the well without addition of enzyme • Conversionsample means the conversion rate of test compounds The dose-response (percent inhibition) curve was plotted and IC50 values were determined by GraphPad software.

The mark [3] stands for this setting: IC50 JAK1 (5 nM) (1 m MATP), JAK1 5 nM, 1 mM ATP.
Setting [4] is: IC50 JAK2 ([…]) (1 mM ATP), 1 mM ATP.
The mark [5] stands for this setting: human liver microsomes 0.5 mg/mL, 1 μM test article, read-out: HLM Clint.
[6] abbreviates: rat liver microsomes 0.5 mg/mL, 1 μM test article, read-out: RLM Clint.
Where [7] appears, read: IC50 TYK2 ([…]) (1 mM ATP), TYK2 […], 1 mM ATP.
Setting [8] is: IC50 JAK1 (10 nM) (Km ATP), JAK1 10 nM, Km ATP.
The mark [9] stands for this setting: IC50 JAK2 ([…]) (Km ATP), Km ATP.

T2 sequence (O60674 whole entry): as the sequence (O60674 whole entry V617F) above, with F617V counted along it
T1 sequence (P23458 whole entry): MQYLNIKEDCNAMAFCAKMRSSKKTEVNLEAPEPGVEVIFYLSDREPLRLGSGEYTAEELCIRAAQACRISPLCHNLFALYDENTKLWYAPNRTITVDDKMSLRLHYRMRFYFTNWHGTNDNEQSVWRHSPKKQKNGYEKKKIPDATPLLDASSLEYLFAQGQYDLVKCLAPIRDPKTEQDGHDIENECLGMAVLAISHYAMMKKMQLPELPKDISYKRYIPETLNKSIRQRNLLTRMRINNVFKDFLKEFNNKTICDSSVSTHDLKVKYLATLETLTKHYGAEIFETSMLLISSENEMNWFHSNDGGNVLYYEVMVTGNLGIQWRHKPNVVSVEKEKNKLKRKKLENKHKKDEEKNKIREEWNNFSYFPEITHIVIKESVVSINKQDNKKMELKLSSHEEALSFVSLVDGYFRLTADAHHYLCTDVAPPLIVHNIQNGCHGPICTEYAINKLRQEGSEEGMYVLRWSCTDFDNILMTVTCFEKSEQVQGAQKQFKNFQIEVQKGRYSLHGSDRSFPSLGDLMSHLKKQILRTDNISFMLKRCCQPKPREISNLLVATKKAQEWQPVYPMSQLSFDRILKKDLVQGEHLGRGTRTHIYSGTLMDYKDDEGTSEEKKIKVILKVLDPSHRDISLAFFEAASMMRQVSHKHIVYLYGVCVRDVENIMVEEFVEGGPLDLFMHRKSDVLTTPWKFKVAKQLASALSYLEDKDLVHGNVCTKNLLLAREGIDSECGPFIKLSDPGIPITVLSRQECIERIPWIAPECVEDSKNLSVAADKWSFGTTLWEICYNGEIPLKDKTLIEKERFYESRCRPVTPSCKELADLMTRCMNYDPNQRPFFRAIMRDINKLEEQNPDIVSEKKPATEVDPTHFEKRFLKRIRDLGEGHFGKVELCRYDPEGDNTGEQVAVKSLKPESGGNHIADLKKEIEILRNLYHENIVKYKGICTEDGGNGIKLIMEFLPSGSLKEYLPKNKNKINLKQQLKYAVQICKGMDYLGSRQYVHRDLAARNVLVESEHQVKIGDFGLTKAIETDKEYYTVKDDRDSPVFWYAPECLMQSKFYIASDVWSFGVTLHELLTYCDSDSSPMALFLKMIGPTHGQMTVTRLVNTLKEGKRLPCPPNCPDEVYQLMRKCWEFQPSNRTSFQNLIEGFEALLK

For orientation: IC50 means the concentration at which inhibition is half-maximal. A low value points to higher potency. As for `COCCn1cc(Nc2ncc(Cl)c(-c3ccc(C(=O)N[C@@H](C)C#N)cc3)n2)cn1` [Example 177, (S)-4-(5-chloro-2-((1-(2-methoxyethyl)-1H-pyrazol-4-yl)amino)pyrimidin-4-yl)-N-(1-cyanoethyl)benzamide], the IC50 stood at 13.5 nM on JAK1 (setting [3]), 2.74 nM at JAK2 (setting [4]) and 43.9 nM on JAK2V617F. Moreover, the microsomal CLint at 1 μM in data set [1] (setting [5]) came to 38.7 µL/min/mg.
`Cc1cnc(Nc2cnn(C3CCOCC3)c2)nc1-c1ccc(C(=O)N[C@@H](C)C(F)(F)F)cc1` [Example 75, (S)-4-(5-Methyl-2-((1-(tetrahydro-2H-pyran-4-yl)-1H-pyrazol-4-yl)amino)pyrimidin-4-yl)-N-(1,1,1-trifluoropropan-2-yl)benzamide]: the IC50 is 12.9 nM at JAK1 (setting [3]) and 8.91 nM against JAK2V617F. Moreover, the microsomal CLint at 1 μM in data set [1] (setting [5]) was found to be 22.6 µL/min/mg.
With `Cc1cnc(Nc2cnn(C3CC4CCC(C3)N4CC(F)(F)F)c2)nc1-c1ccc(C(=O)NCC#N)cc1` [Example 134, N-(cyanomethyl)-4-(5-methyl-2-((1-((1R,3s,5S)-8-(2,2,2-trifluoroethyl)-8-azabicyclo[3.2.1]octan-3-yl)-1H-pyrazol-4-yl)amino)pyrimidin-4-yl)benzamide], the values for the IC50 at JAK1 (setting [3]) and at JAK2 (setting [4]) were 22.4 nM and 10.7 nM, respectively. For the same compound, the microsomal CLint at 1 μM in data set [2] (rat, microsomes) was determined as 1950 µL/min/mg; in data set [1] (human, microsomes) it was 1190 µL/min/mg.
In the case of `N#CC1(CNC(=O)c2ccc(-c3nc(Nc4cnn(C5CC5)c4)ncc3Cl)cc2)CC1` [Example 60, 4-(5-Chloro-2-((1-cyclopropyl-1H-pyrazol-4-yl)amino)pyrimidin-4-yl)-N-((1-cyanocyclopropyl)methyl)benzamide], the figures for the IC50 against JAK1 (setting [3]) and against JAK2 (setting [4]) were 15.3 nM and 30.6 nM, respectively. Moreover, the microsomal CLint at 1 μM in data set [2] (setting [6]) worked out at 40.8 µL/min/mg; in data set [1] (setting [5]), 24.6 µL/min/mg.
For `Cc1cnc(Nc2cnn(C3CCN(C)CC3)c2)nc1-c1ccc(C(=O)N[C@H](C)C#N)cc1` [Example 62, (R)—N-(1-cyanoethyl)-4-(5-methyl-2-((1-(1-methylpiperidin-4-yl)-1H-pyrazol-4-yl)amino)pyrimidin-4-yl)benzamide], the IC50 is 23.1 nM at JAK1 (setting [3]), 71 nM against JAK2 (setting [4]) and 215 nM against TYK2 (setting [7]). Moreover, the microsomal CLint at 1 μM in data set [1] (setting [5]) was found to be 10.6 µL/min/mg.
`CC[C@@H](C#N)NC(=O)c1ccc(-c2nc(Nc3cnn(C4CCN(C)CC4)c3)ncc2F)cc1` [Example 59, (S)—N-(1-cyanopropyl)-4-(5-fluoro-2-((1-(1-methylpiperidin-4-yl)-1H-pyrazol-4-yl)amino)pyrimidin-4-yl)benzamide]: the IC50 against JAK1 (setting [3]) was found to be 23.6 nM; against JAK2 (setting [4]), 83.4 nM; against JAK2V617F, 136 nM; on TYK2 (setting [7]), 111 nM.
Consider `CC(C)(C#N)CNC(=O)c1ccc(-c2nc(Nc3cnn(C4CCOCC4)c3)ncc2Cl)cc1` [Example 80, 4-(5-Chloro-2-((1-(tetrahydro-2H-pyran-4-yl)-1H-pyrazol-4-yl)amino)pyrimidin-4-yl)-N-(2-cyano-2-methylpropyl)benzamide], for which the IC50 on JAK1 (setting [3]) was determined as 22.7 nM; against JAK2 (setting [4]) it was 0.58 nM; at JAK2V617F, 7.74 nM; on TYK2 (setting [7]), 370 nM.
For the compound `CN1CCC(n2cc(Nc3ncc(Cl)c(-c4ccc(C(=O)NCC#N)cc4)n3)cn2)CC1` [Example 44, 4-(5-Chloro-2-((1-(1-methylpiperidin-4-yl)-1H-pyrazol-4-yl)amino)pyrimidin-4-yl)-N-(cyanomethyl)benzamide], the IC50 against JAK1 (setting [3]) is 6.55 nM; on JAK2 (setting [4]) it was 0.54 nM; on JAK2V617F it was 5.11 nM; against TYK2 (setting [7]) it was 78.7 nM. In data set [1] (setting [5]), the microsomal CLint at 1 μM worked out at 19.5 µL/min/mg.
On to `Cc1cnc(Nc2cnn(C)c2)nc1-c1ccc(C(=O)NCC#N)cc1` [Example 11, N-(cyanomethyl)-4-(5-methyl-2-((1-methyl-1H-pyrazol-4-yl)amino)pyrimidin-4-yl)benzamide], for which the IC50 against JAK1 (setting [3]) amounted to 19.6 nM; against JAK1 (setting [8]) it was 3.32 nM; at JAK2 (setting [4]), 46.5 nM; against JAK2 (setting [9]), 1.3 nM; on JAK2V617F, 115 nM; on TYK2 (setting [7]), 83 nM.
For `C[C@@H](C#N)NC(=O)c1ccc(-c2nc(Nc3cnn(C4CC4)c3)ncc2C(F)F)cc1F` [Example 138, (S)—N-(1-cyanoethyl)-4-(2-((1-cyclopropyl-1H-pyrazol-4-yl)amino)-5-(difluoromethyl)pyrimidin-4-yl)-2-fluorobenzamide], the IC50 against JAK1 (setting [3]) stood at 432 nM; against JAK2 (setting [4]), 688 nM. The figures for the microsomal CLint at 1 μM in data set [2] (setting [6]) and in data set [1] (setting [5]) were 8.5 µL/min/mg and 10.7 µL/min/mg, respectively.
In the case of `Cc1cnc(Nc2cnn(C3CC3)c2)nc1-c1ccc(C(=O)NCC#N)nc1` [Example 83, N-(cyanomethyl)-5-(2-((1-cyclopropyl-1H-pyrazol-4-yl)amino)-5-methylpyrimidin-4-yl)picolinamide], the IC50 was 20 nM on JAK1 (setting [3]), 30.9 nM at JAK2 (setting [4]), 67.8 nM at JAK2V617F and 45.2 nM against TYK2 (setting [7]). For the same compound, the microsomal CLint at 1 μM in data set [2] (setting [6]) was determined as 26.1 µL/min/mg.
On JAK1 (setting [3]), `Cc1cnc(Nc2cnn(C3CCN(C(=O)C45CC(C4)C5)CC3)c2)nc1-c1ccc(C(=O)NCC#N)cc1` [Example 114, 4-(2-((1-(1-(Bicyclo[1.1.1]pentane-1-carbonyl)piperidin-4-yl)-1H-pyrazol-4-yl)amino)-5-methylpyrimidin-4-yl)-N-(cyanomethyl)benzamide] showed a half-maximal inhibitory concentration (IC50) of 12.5 nM. Besides, the microsomal CLint at 1 μM in data set [2] (setting [6]) is 93.6 µL/min/mg; in data set [1] (setting [5]) it was 204 µL/min/mg.
With `Cc1cnc(Nc2cnn(C3CCN(C(=O)C(C)(C)C)CC3)c2)nc1-c1ccc(C(=O)NCC#N)cc1` [Example 21, N-(Cyanomethyl)-4-(5-methyl-2-((1-(1-pivaloylpiperidin-4-yl)-1H-pyrazol-4-yl)amino)pyrimidin-4-yl)benzamide], the half-inhibitory concentration (IC50) against JAK1 (setting [3]) is 10.9 nM; against JAK1 (setting [8]) it was 2.22 nM; on JAK2 (setting [4]), below 0.25 nM; on JAK2 (setting [9]), below 0.25 nM; against JAK2V617F, 3.55 nM; at TYK2 (IC50 TYK2 (10 nM) (Km ATP), TYK2 10 nM, Km ATP), 0.51 nM. The IC50 against TYK2 (setting [7]) is 17.4 nM.
As for `CC(C)(C)C(=O)N1CCC(n2cc(Nc3ncc(Cl)c(-c4ccc(C(=O)NCC#N)cc4)n3)cn2)CC1` [Example 98, 4-(5-Chloro-2-((1-(1-pivaloylpiperidin-4-yl)-1H-pyrazol-4-yl)amino)pyrimidin-4-yl)-N-(cyanomethyl)benzamide], the results for the half-maximal inhibitory concentration (IC50) against JAK1 (setting [3]) and at JAK2V617F were 17.8 nM and 1.3 nM, respectively. In data set [1] (setting [5]), the microsomal CLint at 1 μM is 147 µL/min/mg.
On the same counts, the results for `C[C@@H](C#N)NC(=O)c1ccc(-c2nc(Nc3cnn(C4CCN(C(=O)C(C)(C)C)CC4)c3)ncc2Cl)cc1` [Example 99, (S)-4-(5-Chloro-2-((1-(1-pivaloylpiperidin-4-yl)-1H-pyrazol-4-yl)amino)pyrimidin-4-yl)-N-(1-cyanoethyl)benzamide] are 23.6 nM, 1.32 nM and 113 µL/min/mg.
